Results on 14 compounds are retold here after patent US10273226B2, “Pyrazolyl-heteroarylamides as pesticides” (Bayer Animal Health GmbH, priority 2014, dated 2019).

Type in all cases: in vivo
Assay [1] deals with Lucilia cuprina. In words: Lucilia cuprina test. As to conditions: application rate 100 ppm; L1 larvae; after 2 days. The method, boiled down:
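About 20 L1 larvae placed in vessels with minced horsemeat treated with compound (DMSO concentrate diluted in water) at the desired concentration. Kill (%) scored after 2 days; 100% means all larvae dead, 0% none.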

In assay [2] the test system is Boophilus microplus. In words: Boophilus microplus injection test. As to conditions: application rate 20 μg/animal; injection into abdomen; assessed after 7 days. The method, boiled down:
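Steps: dilute compound in DMSO to the desired concentration; inject 1 μl abdominally into 5 engorged adult females; keep in climate-controlled dishes; at 7 days score fertile egg laying, incubating doubtful eggs until hatch at about 42 days.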

Assay [3] concerns Ctenocephalides felis. In words: Ctenocephalides felis oral test. As to conditions: application rate 100 ppm in citrated cattle blood; after 2 days. The method in brief:
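Oral exposure of unfed adult fleas, roughly 20 per chamber, to compound-spiked citrated cattle blood taken up across a parafilm membrane. Read-out is percent kill at 2 days, where 100% means every flea dead.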

For assay [4], the system named is Musca domestica. In words: Musca domestica test. As to conditions: application rate 100 ppm; adult houseflies; after 2 days. The protocol:
Solvent: dimethyl sulphoxide
To produce an appropriate active ingredient formulation, 10 mg of active ingredient are mixed with 0.5 ml of dimethyl sulphoxide, and the concentrate is diluted with water to the desired concentration.
Vessels containing a sponge treated with sugar solution and the active ingredient formulation of the desired concentration are populated with 10 adult houseflies (Musca domestica).
After 2 days, the kill in % is determined. 100% means that all of the flies have been killed; 0% means that none of the flies have been killed.

Assay [5] relates to Tetranychus urticae. In words: Tetranychus urticae spray test, OP-resistant. As to conditions: application rate 100 g/ha; after 6 days. The protocol:
Tetranychus urticae—Spray Test, OP-Resistant
To produce an appropriate active ingredient formulation, 1 part by weight of active ingredient is dissolved using the specified parts by weight of solvent and made up with water containing an emulsifier concentration of 1000 ppm until the desired concentration is attained. To produce further test concentrations, the preparation is diluted with emulsifier-containing water.
Discs of bean leaves (Phaseolus vulgaris) infested by all stages of the greenhouse red spider mite (Tetranychus urticae) are sprayed with an active ingredient formulation of the desired concentration.
After 6 days, efficacy in % is determined. 100% means that all the spider mites have been killed; 0% means that none of the spider mites have been killed.

For assay [6], the system named is Phaedon cochleariae. In words: Phaedon cochleariae spray test. As to conditions: application rate 100 g/ha; larvae; after 7 days. The method in brief: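 Chinese cabbage leaf discs were sprayed with the compound formulated in water containing 1000 ppm emulsifier. After drying, they were infested with mustard beetle larvae. Efficacy was scored as % larvae killed after 7 days (100% = all dead, 0% = none).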

Assay [7] has as its system Spodoptera frugiperda. In words: Spodoptera frugiperda spray test. As to conditions: application rate 100 g/ha; caterpillars; after 7 days. The method, boiled down: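 Maize leaf discs were sprayed with compound formulated in solvent plus water containing 1000 ppm emulsifier, dried, then infested with Spodoptera frugiperda caterpillars. Efficacy in % mortality was scored after 7 days (100% all killed, 0% none).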

Assay [8] has as its system Rhipicephalus sanguineus. In words: Rhipicephalus sanguineus in vitro contact test with adult brown dog ticks. As to conditions: application rate 5 μg/cm^2 (500 g/ha); after 48 h; ticks dead or moribund. The method, boiled down:
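Test tubes (25 ml) were coated by dissolving active ingredient in acetone p.a., diluting to the required concentration, and spreading 250 μl over the inner walls and base on an orbital shaker at 30 rpm for 2 h. Once dry, 5-10 adult Rhipicephalus sanguineus were added, and tubes were capped with perforated lids and kept horizontal in darkness at room temperature. At 48 h, ticks were knocked down and heated at 45-50° C. for up to 5 min. Those unable to climb away were counted dead or moribund, and efficacy ran from 0% to 100%.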

The test system of assay [9] is Ctenocephalides felis. In words: Ctenocephalides felis in vitro contact test with adult cat fleas. As to conditions: after 48 h, fleas dead or moribund. The protocol: Ctenocephalides felis—In Vitro Contact Tests with Adult Cat Fleas
For the coating of the test tubes, 9 mg of active ingredient are first dissolved in 1 ml of acetone p.a. and then diluted to the desired concentration with acetone p.a. 250 μl of the solution are distributed homogeneously on the inner walls and base of a 25 ml test tube by turning and rocking on an orbital shaker (rocking rotation at 30 rpm for 2 h). With 900 ppm active ingredient solution and internal surface 44.7 cm^2, given homogeneous distribution, an area-based dose of 5 μg/cm^2 is achieved.
After the solvent has evaporated off, the tubes are populated with 5-10 adult cat fleas (Ctenocephalides felis), sealed with a perforated plastic lid and incubated in a horizontal position at room temperature and ambient humidity. After 48 h, efficacy is determined. To this end, the test tubes are stood upright and the fleas are knocked to the base of the tube. Fleas which remain motionless at the base or move in an uncoordinated manner are considered to be dead or moribund.
100% efficacy means that all the fleas were dead or moribund. 0% efficacy means that no fleas were harmed.

Where [10] appears, read: application rate 5 μg/cm^2 (500 g/ha).

Structures are written as SMILES.

For the compound `COC1CCC(C(=O)Nc2cc(-c3cnn(-c4c(C(F)(F)F)c(C(F)(F)C(F)(F)F)nn4C)c3)ccc2F)CC1` (mixture of isomers) [Example 1-047], the “efficacy (kill in %)” value in [1] is given as 100%; in [3], 100%; in assay [4], 80%. For the same compound, the “efficacy (laying of fertile eggs)” value in [2] is reported as 100%. Also, the efficacy in assay [5] and in assay [6] was 100% in each case.
On to `Cn1nc(C(F)(F)C(F)(F)F)c(C(F)(F)F)c1-n1cc(-c2cccc(NC(=O)CC(F)(F)F)c2)cn1` [Example 1-007], for which the “efficacy (kill in %)” value in assay [1], in [3] and in [4] was 100% throughout. The “efficacy (laying of fertile eggs)” value in assay [2] worked out at 100%. For the same compound, the efficacy in assay [7] came out at 100%; in [8], 100%; in assay [5] it was 90%; in [6], 100%.
With `Cn1nc(C(F)(F)C(F)(F)F)c(C(F)(F)F)c1-n1cc(-c2cccc(NC(=O)c3cccc(F)c3)c2)cn1` [Example 1-013], the “efficacy (kill in %)” value is given as 100% in assay [1], 100% in assay [3] and 90% in assay [4]. Further, the “efficacy (laying of fertile eggs)” value in assay [2] worked out at 100%. In addition, the efficacy in [7], in assay [8], in assay [9] (setting [10]), in assay [5] and in assay [6] was 100% each time.
With `Cn1nc(C(F)(F)C(F)(F)F)c(C(F)(F)F)c1-n1cc(-c2cccc(NC(=O)c3cc(F)cc(F)c3)c2)cn1` [Example 1-014], the “efficacy (kill in %)” value was 100% in [1], 100% in assay [3] and 90% in assay [4]. Also, in [2], the “efficacy (laying of fertile eggs)” value came out at 100%. Also, the efficacy in [7] is on record as 100%; in [8], 100%; in assay [9] (application rate 1 μg/cm^2 (100 g/ha)) it was 80%; in assay [5], 90%; in assay [6], 100%.
Turning to `Cn1nc(C(F)(F)C(F)(F)F)c(C(F)(F)F)c1-n1cc(-c2cccc(NC(=O)c3cccnc3Cl)c2)cn1` [Example 1-028], the “efficacy (kill in %)” value in assay [1], in [3] and in [4] was 100% throughout. The “efficacy (laying of fertile eggs)” value in assay [2] was 100%. In addition, the efficacy in assay [7], in assay [8], in assay [9] (setting [10]), in assay [5] and in [6] was 100% each time.
Take `Cn1nc(C(F)(F)C(F)(F)F)c(C(F)(F)F)c1-n1cc(-c2ccc(F)c(NC(=O)c3ccncn3)c2)cn1` [Example 1-034]: the “efficacy (kill in %)” value in assay [1], in assay [3] and in assay [4] was 100% in each case. Further, the “efficacy (laying of fertile eggs)” value in [2] is 100%. Moreover, the efficacy in [7], in [8], in assay [9] (setting [10]), in assay [5] and in assay [6] was 100% in each case.
As for `Cn1cc(C(=O)Nc2cc(-c3cnn(-c4c(C(F)(F)F)c(C(F)(F)C(F)(F)F)nn4C)c3)ccc2F)cn1` [Example 1-035], the “efficacy (kill in %)” value in assay [1], in assay [3] and in [4] was 100% each time. In addition, in assay [2], the “efficacy (laying of fertile eggs)” value is reported as 100%. For the same compound, the efficacy in assay [7] stood at 100%; in assay [8], 80%; in assay [5], 100%; in [6], 100%.
Turning to `Cn1nc(C(F)(F)C(F)(F)F)c(C(F)(F)F)c1-n1cc(-c2ccc(F)c(NC(=O)C3CC3)c2)cn1` [Example 1-055], the “efficacy (kill in %)” value in assay [1], in [3] and in assay [4] was 100% in each case. In [2], the “efficacy (laying of fertile eggs)” value is 100%. In addition, the efficacy in [7] was found to be 100%; in [8] it was 80%; in [5] it was 90%; in assay [6], 100%.
Take `Cn1nc(C(F)(F)C(F)(F)F)c(C(F)(F)F)c1-n1cc(-c2ccc(F)c(NC(=O)C3(C)CC3)c2)cn1` [Example 1-058]: the “efficacy (kill in %)” value in [1] is 100%; in assay [3], 100%; in assay [4], 80%. Also, the “efficacy (laying of fertile eggs)” value in [2] is 100%. The efficacy in [7] worked out at 83%; in assay [8] it was 100%; in assay [9] (setting [10]), 100%; in assay [5] it was 100%.
As to `Cn1nc(C(F)(F)C(F)(F)F)c(C(F)(F)F)c1-n1cc(-c2ccc(F)c(NC(=O)c3ccccc3F)c2)cn1` [Example 1-071], the “efficacy (kill in %)” value is 100% in assay [1], 90% in [3] and 80% in assay [4]. In addition, the “efficacy (laying of fertile eggs)” value in assay [2] worked out at 100%. The efficacy in [7], in assay [5] and in assay [6] was 100% each time.
On to `Cn1nc(C(F)(F)C(F)(F)F)c(C(F)(F)F)c1-n1cc(-c2ccc(F)c(NC(=O)c3ccc4c(c3)OC(F)(F)O4)c2)cn1` [Example 1-084], for which the “efficacy (kill in %)” value in assay [1], in [3] and in [4] was 100% in each case. Also, in assay [2], the “efficacy (laying of fertile eggs)” value was determined as 100%. The efficacy is 100% in assay [7], 80% in assay [8] and 100% in [6].
As to `CN(C)C(=O)C(=O)Nc1cc(-c2cnn(-c3c(C(F)(F)F)c(C(F)(F)C(F)(F)F)nn3C)c2)ccc1F` [Example 1-127], the “efficacy (kill in %)” value in assay [1], in assay [3] and in assay [4] was 100% throughout. The “efficacy (laying of fertile eggs)” value in assay [2] is 100%. For the same compound, the efficacy in [7], in assay [8], in assay [9] (setting [10]) and in [6] was 100% in each case.
In the case of `Cc1ncc(-c2cnn(-c3c(C(F)(F)F)c(C(F)(F)C(F)(F)F)nn3C)c2)cc1NC(=O)c1ccc(F)cc1` [Example 2-003], the “efficacy (kill in %)” value in [1], in assay [3] and in [4] was 100% each time. Further, the “efficacy (laying of fertile eggs)” value in assay [2] is listed as 100%. Further, the efficacy in assay [7], in [8], in [5] and in assay [6] was 100% throughout.
Regarding `Cc1ncc(-c2cnn(-c3c(C(F)(F)F)c(C(F)(F)C(F)(F)F)nn3C)c2)cc1NC(=O)c1ccncc1` [Example 2-004], the “efficacy (kill in %)” value in assay [1] turned out to be 100%; in assay [3] it was 100%; in assay [4], 80%. Also, the “efficacy (laying of fertile eggs)” value in assay [2] came to 100%. Further, the efficacy in assay [7], in [5] and in assay [6] was 100% throughout.
